Measurements taken from patent US11173151B2, “Substituted triazole derivatives and uses thereof” (BAYER AKTIENGESELLSCHAFT, priority 2017, dated 2021).

Key:
[1] = target: T1, human V2 receptor (Homo sapiens, UniProt P30518); assay: Cellular in vitro assay for determining vasopressin receptor activity, V2 receptor cell line (CHO, CRE-luciferase); type: cell-based; settings: CHO cell line transfected with human V2 receptor; [Arg8]-vasopressin at EC50 concentration, 3 hours; read-out: IC50 hV2
T1 construct: expressed in transfected cells; host or cells: CHO K1 (ATCC) expressing firefly luciferase under a CRE-responsive promoter
T1 sequence (P30518 whole entry): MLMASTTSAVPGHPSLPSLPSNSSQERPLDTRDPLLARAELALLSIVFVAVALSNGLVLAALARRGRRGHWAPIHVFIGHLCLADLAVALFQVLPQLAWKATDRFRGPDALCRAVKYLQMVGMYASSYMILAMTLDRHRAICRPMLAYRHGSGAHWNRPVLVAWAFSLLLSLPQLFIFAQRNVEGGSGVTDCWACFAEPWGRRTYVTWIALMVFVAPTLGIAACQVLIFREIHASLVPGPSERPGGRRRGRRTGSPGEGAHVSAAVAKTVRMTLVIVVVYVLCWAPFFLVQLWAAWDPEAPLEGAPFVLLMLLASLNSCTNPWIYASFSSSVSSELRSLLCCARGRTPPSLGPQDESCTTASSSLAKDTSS

[2] = target: T2, human V1a receptor (Homo sapiens, UniProt P37288); assay: Cellular in vitro assay for determining vasopressin receptor activity, V1a receptor cell line (CHO, aequorin luminescence); type: cell-based; settings: for IC50: CHO cell line transfected with human V1a receptor, [Arg]-vasopressin at EC50 concentration, read-out: IC50 hV1a; for ratio IC50 hV2/hV1a: selectivity ratio IC50 hV2 / IC50 hV1a
T2 construct: expressed in transfected cells; host or cells: CHO K1 (ATCC), also stably transfected with a modified aequorin
T2 sequence (P37288 whole entry): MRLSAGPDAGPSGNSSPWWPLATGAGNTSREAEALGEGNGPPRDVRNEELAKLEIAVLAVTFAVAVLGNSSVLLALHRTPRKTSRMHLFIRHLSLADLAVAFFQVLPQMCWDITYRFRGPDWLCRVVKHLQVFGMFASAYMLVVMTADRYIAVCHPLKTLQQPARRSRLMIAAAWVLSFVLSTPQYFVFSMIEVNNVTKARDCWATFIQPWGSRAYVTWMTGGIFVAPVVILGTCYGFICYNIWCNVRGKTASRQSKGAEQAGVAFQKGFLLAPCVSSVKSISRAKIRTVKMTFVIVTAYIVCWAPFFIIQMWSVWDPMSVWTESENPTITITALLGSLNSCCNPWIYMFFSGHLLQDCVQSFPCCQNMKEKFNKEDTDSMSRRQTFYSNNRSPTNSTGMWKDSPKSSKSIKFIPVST
Summary of the method: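 Antagonism is measured in stable CHO K1 transfectants coexpressing the Gαq-coupled receptor and a calcium-sensitive aequorin photoprotein. Agonist challenge uses [Arg]-vasopressin at EC50 after a 10-minute compound exposure; IC50 values come from the luminescence signal.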

Structure (SMILES) | IC50 [1] [nM] | IC50 [2] [nM] | ratio IC50 hV2/hV1a [2]
C=CCC(=O)Nc1ncccc1-n1cnc(Cn2nc(-c3ccc(Cl)cc3)n(C[C@H](O)C(F)(F)F)c2=O)n1 [Example 152] | 1350 | 65 | 20.8
N#Cc1cccc(C(=O)Nc2ncccc2-n2cnc(Cn3nc(-c4ccc(Cl)cc4)n(C[C@H](O)C(F)(F)F)c3=O)n2)c1 [Example 153] | 17300 | 410 | 42.2
CC1(C(=O)Nc2ncccc2-n2cnc(Cn3nc(-c4ccc(Cl)cc4)n(C[C@H](O)C(F)(F)F)c3=O)n2)CC1 [Example 154] | 2200 | 6.75 | 325.9
CC(C(=O)Nc1ncccc1-n1cnc(Cn2nc(-c3ccc(Cl)cc3)n(C[C@H](O)C(F)(F)F)c2=O)n1)n1cncn1 (stereo partly drawn) [Example 155] | 1950 | 39 | 50.0
O=C(Nc1ncccc1-n1cnc(Cn2nc(-c3ccc(Cl)cc3)n(C[C@H](O)C(F)(F)F)c2=O)n1)C1CCCCCC1 [Example 156] | 1350 | 66 | 20.5
O=C(Nc1ncccc1-n1cnc(Cn2nc(-c3ccc(Cl)cc3)n(C[C@H](O)C(F)(F)F)c2=O)n1)c1ccncc1 [Example 157] | 3050 | 3.55 | 859.2
CC(C)(C)CC(=O)Nc1ncccc1-n1cnc(Cn2nc(-c3ccc(Cl)cc3)n(C[C@H](O)C(F)(F)F)c2=O)n1 [Example 158] | 3800 | 10.6 | 360.2
O=C(Nc1ncccc1-n1cnc(Cn2nc(-c3ccc(Cl)cc3)n(C[C@H](O)C(F)(F)F)c2=O)n1)C1CCCCC1 [Example 159] | 1850 | 52.5 | 35.2
Cc1cc(C(=O)Nc2ncccc2-n2cnc(Cn3nc(-c4ccc(Cl)cc4)n(C[C@H](O)C(F)(F)F)c3=O)n2)no1 [Example 161] | 500 | 26.5 | 18.9
Cc1cccc(C(=O)Nc2ncccc2-n2cnc(Cn3nc(-c4ccc(Cl)cc4)n(C[C@H](O)C(F)(F)F)c3=O)n2)c1 [Example 162] | 7200 | 300 | 24.0
O=C(Nc1ncccc1-n1cnc(Cn2nc(-c3ccc(Cl)cc3)n(C[C@H](O)C(F)(F)F)c2=O)n1)c1ccno1 [Example 163] | 1300 | 28 | 46.4
Cc1cn(CC(=O)Nc2ncccc2-n2cnc(Cn3nc(-c4ccc(Cl)cc4)n(C[C@H](O)C(F)(F)F)c3=O)n2)nn1 [Example 164] | 1300 | 660 | 2.0
O=C(CC1CCCCO1)Nc1ncccc1-n1cnc(Cn2nc(-c3ccc(Cl)cc3)n(C[C@H](O)C(F)(F)F)c2=O)n1 (stereo partly drawn) [Example 165] | 635 | 66 | 9.6
O=C(Nc1ncccc1-n1cnc(Cn2nc(-c3ccc(Cl)cc3)n(C[C@H](O)C(F)(F)F)c2=O)n1)C1CCCCO1 (stereo partly drawn) [Example 166] | 2000 | 39 | 51.3
O=C(Nc1ncccc1-n1cnc(Cn2nc(-c3ccc(Cl)cc3)n(C[C@H](O)C(F)(F)F)c2=O)n1)OCC(F)(F)F [Example 167, 2,2,2-Trifluoroethyl {3-[3-({3-(4-chlorophenyl)-5-oxo-4-[(2S)-3,3,3-trifluoro-2-hydroxypropyl]-4,5-dihydro-1H-1,2,4-triazol-1-yl}methyl)-1H-1,2,4-triazol-1-yl]pyridin-2-yl}carbamate] | 1250 | 19.3 | 64.7
O=C(NCC(F)(F)F)c1ccccc1-n1cnc(Cn2nc(-c3ccc(Cl)cc3)n(C[C@@H](O)C(F)(F)F)c2=O)n1 [Example 168, 2-[3-({3-(4-Chlorophenyl)-5-oxo-4-[(2R)-3,3,3-trifluoro-2-hydroxypropyl]-4,5-dihydro-1H-1,2,4-triazol-1-yl}methyl)-1H-1,2,4-triazol-1-yl]-N-(2,2,2-trifluoroethyl)benzamide] | 1540 | 28.5 | 54.1
